Assay results reported in patent US10399939B2, “Tetrahydronaphthalene estrogen receptor modulators and uses thereof” (Genentech, Inc., priority 2015, dated 2019).

Biological target: ER-alpha (WT) (Homo sapiens (Human), UniProt P03372)
Assay: Breast Cancer Cell ERa High Content Fluorescence Imaging Degradation Assay (ER-alpha MCF7 HCS)
Type: cell-based
Settings: for EC50 / ER-alpha (WT) MCF7 HCS (S inf) / ER-alpha (WT) MCF7 HCS (EC50): MCF7 breast cancer cells; for EC50 / ER-alpha (WT) MCF7 HCS (EC50): 4 hours incubation, inflexion point of curve; for ER-alpha (WT) MCF7 HCS (S inf): plateau of the maximal effect (ERa degradation), DMSO and 5 nM Fulvestrant define 0% and 100% changes in ESR1; for degradation activities measured as ER-alpha MCF7 HCS Sinf (%) values (in words): MCF7 cells
Experimental: Example 901: Breast Cancer Cell ERa High Content Fluorescence Imaging Degradation Assay
MCF7 breast cancer cells were seeded on day 1 at a density of 10,000 cells per well in 384 well poly-lysine coated tissue culture plate (Greiner # T-3101-4), in 50 µL/well RPMI (phenol red free), 10% FBS (Charcoal stripped), containing L-glutamine. […] Compounds and controls were dispensed using a Labcyte Echo acoustic dispenser to dispense compounds with a pre-defined serial dilution (1.8×, 10 point, in duplicate) and appropriate backfill and control compounds (final total volume transferred was 417.5 nL and compound dispense volume ranges from 2.5 nL to 417.5 nL; 0.84% DMSO (v/v) final), ultimately producing a concentration range from 0.05 nM to 835 nM. Cell plates were incubated at 37° C., for 4 hours. Fixation and permeabilization were carried out using a Biotek EL406 plate washer and dispenser as follows. Cells were fixed by addition of 15 μL of 16% paraformaldehyde (Electron Microscopy Sciences #15710-S) directly to the 50 μL cell culture medium in each well using the peristaltic pump 5 μL cassette on a Biotek EL406 (final concentration of formaldehyde was 3.7% w/v). Samples were incubated 30 minutes. Well contents was aspirated and 50 μL/well of Phosphate Buffered Saline (PBS) containing 0.5% w/v bovine serum albumen, 0.5% v/v Triton X-100 (Antibody Dilution Buffer) was added to each well. Samples were incubated for 30 minutes. Well contents were aspirated and washed 3 times with 100 μL/well of PBS. Immunofluorescence staining of estrogen receptor alpha (ESR1) was carried out using a Biotek EL406 plate washer and dispenser as follows. The well supernatant was aspirated from the wells and 25 μL/well of anti-ESR1 mAb (F10) (Santa Cruz sc-8002) diluted 1:1000 in Antibody Dilution Buffer was dispensed. Samples were incubated for 2 hours at room temperature. Samples were washed 4 times with 100 μL/well of PBS. 25 μL (microliters)/well of secondary antibody solution (Alexafluor® 488 conjugate anti-mouse IgG (LifeTechnologies #A21202) diluted 1:1000 and Hoechst 33342 1 μg/ml diluted in Antibody Dilution Buffer) were dispensed into each well. Samples were incubated for 2 hours at room temperature. Samples were washed 3 times with 100 μL/well of PBS using a Biotek EL406. Quantitative fluorescence imaging of ESR1 was carried out using a Cellomics Arrayscan V® (Thermo). Fluorescence images of the samples (Channel 1: XF53 Hoechst (DNA stain); Channel 2: XF53 FITC (ESR1 stain)) were acquired using a Cellomics VTI Arrayscan using the Bioapplication “Compartmental Analysis” using the auto-exposure (based on DMSO control wells) setting “peak target percentile” set to 25% target saturation for both channels. Channel 1 (DNA stain) was used to define the nuclear region (Circ). Measurements of “Mean_CircAvgIntCh2”, which is the Alexafluor 488 fluorescence intensity (ESR1) within the nuclear region, was measured on a per cell basis and averaged over all the measured cells. Data analysis was carried out using Genedata Screener Software, with DMSO and 5 nM Fulvestrant treated samples being used to define the 0% and 100% changes in ESR1. The “Robust Fit” method was used to define the inflexion point of curve (EC50) and the plateau of the maximal effect (Sinf).

Chain of ER-alpha (WT) (P03372 whole entry): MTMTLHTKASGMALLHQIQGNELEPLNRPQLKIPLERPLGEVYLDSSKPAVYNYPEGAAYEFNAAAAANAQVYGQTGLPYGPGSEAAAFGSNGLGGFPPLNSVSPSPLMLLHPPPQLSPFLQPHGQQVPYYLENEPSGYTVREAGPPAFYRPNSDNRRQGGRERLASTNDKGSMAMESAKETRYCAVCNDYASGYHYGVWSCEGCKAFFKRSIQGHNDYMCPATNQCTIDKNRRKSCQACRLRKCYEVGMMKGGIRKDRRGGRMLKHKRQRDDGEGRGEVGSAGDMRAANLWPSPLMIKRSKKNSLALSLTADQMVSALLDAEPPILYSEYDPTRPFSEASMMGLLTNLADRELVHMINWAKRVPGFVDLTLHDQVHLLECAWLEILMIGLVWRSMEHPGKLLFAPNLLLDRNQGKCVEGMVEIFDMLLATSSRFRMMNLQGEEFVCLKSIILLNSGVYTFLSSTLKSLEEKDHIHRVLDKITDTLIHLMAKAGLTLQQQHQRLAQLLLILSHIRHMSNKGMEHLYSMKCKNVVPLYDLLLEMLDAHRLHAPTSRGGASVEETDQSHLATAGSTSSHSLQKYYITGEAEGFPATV

Row | Structure (SMILES) | EC50 [pM] | ER-alpha (WT) MCF7 HCS (S inf) [%] | degradation activities measured as ER-alpha MCF7 HCS Sinf (%) values (in words) | ER-alpha (WT) MCF7 HCS (EC50) [µmol]
1 | Oc1ccc2c(c1)CC[C@@H](C1CCC(F)(F)CC1)[C@H]2c1ccc(OCCN2CC(CF)C2)cc1 [Compound 108, (5S,6S)-6-(4,4-difluorocyclohexyl)-5-(4-(2-(3-(fluoromethyl)azetidin-1-yl)ethoxy)phenyl)-5,6,7,8-tetrahydronaphthalen-2-ol] | 14600 | −97 |  | 
2 | Oc1ccc2c(c1)CC[C@H](C1CCOCC1)[C@@H]2c1ccc(OCCN2CC(CF)C2)cc1 [Compound 107, (5R,6R)-5-(4-(2-(3-(fluoromethyl)azetidin-1-yl)ethoxy)phenyl)-6-(tetrahydro-2H-pyran-4-yl)-5,6,7,8-tetrahydronaphthalen-2-ol] | 16400 | −87.8 |  | 
3 | Oc1ccc2c(c1)CC[C@@H](c1ccccc1)[C@H]2c1ccc(OCCN2CCC(CF)C2)cc1 (stereo partly drawn) [Compound 114, (5S,6R)-5-(4-(2-(3-(fluoromethyl)pyrrolidin-1-yl)ethoxy)phenyl)-6-phenyl-5,6,7,8-tetrahydronaphthalen-2-ol] | 100 | −94.2 |  | 
4 | Oc1ccc2c(c1)CC[C@H](c1ccccc1)[C@@H]2c1ccc(OC2CN(CCCF)C2)cc1 [Compound 130, (5R,6S)-5-(4-((1-(3-fluoropropyl)azetidin-3-yl)oxy)phenyl)-6-phenyl-5,6,7,8-tetrahydronaphthalen-2-ol] | 107 | −99.3 |  | 
5 | Oc1ccc2c(c1)CC[C@H](c1ccccc1)[C@@H]2c1ccc(NC2CN(CCCF)C2)cc1 [Compound 132, (5R,6S)-5-(4-((1-(3-fluoropropyl)azetidin-3-yl)amino)phenyl)-6-phenyl-5,6,7,8-tetrahydronaphthalen-2-ol] | 29 | −99.9 |  | 
6 | Oc1cccc2c1[C@@H](c1ccc(OCCN3CC(CF)C3)cc1)[C@@H](c1ccccc1)CC2 [Compound 135, (7S,8R)-8-(4-(2-(3-(fluoromethyl)azetidin-1-yl)ethoxy)phenyl)-7-phenyl-5,6,7,8-tetrahydronaphthalen-1-ol] | 29800 | −82 |  | 
7 | Oc1ccc2c(c1)CC[C@@H](c1ccccc1)[C@H]2c1ccc(NCCN2CC(CF)C2)cc1 [Compound 138, (5S,6R)-5-(4-((2-(3-(fluoromethyl)azetidin-1-yl)ethyl)amino)phenyl)-6-phenyl-5,6,7,8-tetrahydronaphthalen-2-ol] | 203 | −89.89 |  | 
8 | Oc1ccc2c(c1)CC[C@@H](c1ccccc1)[C@H]2c1ccc(NCCN2CC[C@@H](CF)C2)cc1 [Compound 140, (5S,6R)-5-(4-((2-((R)-3-(fluoromethyl)pyrrolidin-1-yl)ethyl)amino)phenyl)-6-phenyl-5,6,7,8-tetrahydronaphthalen-2-ol] | 773 | −45 |  | 
9 | Oc1ccc2c(c1)CC[C@H](c1ccccc1)[C@@H]2c1ccc(OCCN2CC(CCl)C2)cc1 [Compound 112, (5R,6S)-5-(4-(2-(3-(chloromethyl)azetidin-1-yl)ethoxy)phenyl)-6-phenyl-5,6,7,8-tetrahydronaphthalen-2-ol] | 50900 | −35 |  | 
10 | Oc1ccc2c(c1)CC[C@H](c1ccccc1)[C@@H]2c1c(F)cc(OCCN2CC(CF)C2)cc1F [Compound 105, (1S,2S)-1-[2,6-difluoro-4-[2-[3-(fluoromethyl)azetidin-1-yl]ethoxy]phenyl]-2-phenyl-tetralin-6-ol] | 40.4 | −98.7 |  | 
11 | C[C@H](CN1CC[C@@H](CF)C1)Oc1ccc([C@@H]2c3ccc(O)cc3CC[C@@H]2c2ccccc2)cc1 [Compound 125, (5R,6S)-5-(4-(((R)-1-((R)-3-(fluoromethyl)pyrrolidin-1-yl)propan-2-yl)oxy)phenyl)-6-phenyl-5,6,7,8-tetrahydronaphthalen-2-ol] |  |  |  | >0.10
12 | CN1CC(CCOc2ccc([C@@H]3c4ccc(O)cc4CC[C@@H]3c3ccccc3)cc2)C1 (stereo in doubt) [A, (5R,6S)-5-(4-(2-(1-methylazetidin-3-yl)ethoxy)phenyl)-6-phenyl-5,6,7,8-tetrahydronaphthalen-2-ol, reference compound] | 19000 | −58 | low | 

Other lines, results leading:

Row | EC50 [pM] | ER-alpha (WT) MCF7 HCS (S inf) [%] | degradation activities measured as ER-alpha MCF7 HCS Sinf (%) values (in words) | ER-alpha (WT) MCF7 HCS (EC50) [µmol] | Structure (SMILES)
13 | 208 | −98.5 |  |  | Oc1ccc2c(c1)CCC1(CCCC1)[C@H]2c1ccc(OCCN2CC(CF)C2)cc1 [Compound 121, (S)-1′-(4-(2-(3-(fluoromethyl)azetidin-1-yl)ethoxy)phenyl)-3′,4′-dihydro-1′H-spiro[cyclopentane-1,2′-naphthalen]-6′-ol]
14 | 26 | −43.35 | low |  | CN1CC(CCOc2ccc([C@H]3c4ccc(O)cc4CC[C@H]3c3ccccc3)cc2)C1 (stereo in doubt) [B, (5S,6R)-5-(4-(2-(1-methylazetidin-3-yl)ethoxy)phenyl)-6-phenyl-5,6,7,8-tetrahydronaphthalen-2-ol, reference compound]
15 | 675 | −97.1 |  |  | C[C@H](CN1CC[C@@H](CF)C1)Oc1ccc([C@H]2c3ccc(O)cc3CC[C@H]2c2ccccc2)cc1 [Compound 126, (5S,6R)-5-(4-(((R)-1-((R)-3-(fluoromethyl)pyrrolidin-1-yl)propan-2-yl)oxy)phenyl)-6-phenyl-5,6,7,8-tetrahydronaphthalen-2-ol]
16 | 36 | −98.8 |  |  | Oc1ccc2c(c1)CC[C@H](c1ccccc1)[C@@H]2c1ccc(OCCN2CC(CF)C2)cc1F [Compound 120, (5S,6S)-5-(2-fluoro-4-(2-(3-(fluoromethyl)azetidin-1-yl)ethoxy)phenyl)-6-phenyl-5,6,7,8-tetrahydronaphthalen-2-ol]
17 | 38.5 | −99.2 |  |  | N#Cc1ccc([C@@H]2CCc3cc(O)ccc3[C@@H]2c2ccc(OCCN3CC(CF)C3)cc2)cc1 [Compound 134, 4-((1S,2R)-1-(4-(2-(3-(fluoromethyl)azetidin-1-yl)ethoxy)phenyl)-6-hydroxy-1,2,3,4-tetrahydronaphthalen-2-yl)benzonitrile]
18 |  |  |  | >0.10 | Oc1ccc2c(c1)CC[C@@H](c1ccccc1)[C@H]2c1ccc(OC2CN(CCCF)C2)cc1 [Compound 129, (5S,6R)-5-(4-((1-(3-fluoropropyl)azetidin-3-yl)oxy)phenyl)-6-phenyl-5,6,7,8-tetrahydronaphthalen-2-ol]
19 | 15600 | −95 |  |  | Oc1ccc2c(c1)CC[C@@H](c1ccccc1)[C@H]2c1c(F)cc(OCCN2CC(CF)C2)cc1F [Compound 104, (1R,2R)-1-[2,6-difluoro-4-[2-[3-(fluoromethyl)azetidin-1-yl]ethoxy]phenyl]-2-phenyl-tetralin-6-ol]
20 | 177 | −93.6 |  |  | Oc1ccc2c(c1)CC[C@@H](c1ccccc1)[C@H]2c1ccc(OCCN2CC(CCl)C2)cc1 [Compound 113, (5S,6R)-5-(4-(2-(3-(chloromethyl)azetidin-1-yl)ethoxy)phenyl)-6-phenyl-5,6,7,8-tetrahydronaphthalen-2-ol]
21 | 16500 | −85 |  |  | Oc1ccc2c(c1)CC[C@@H](c1ccccc1)[C@H]2c1ccc(OCCN2CC(CF)C2)cc1F [Compound 119, (5R,6R)-5-(2-fluoro-4-(2-(3-(fluoromethyl)azetidin-1-yl)ethoxy)phenyl)-6-phenyl-5,6,7,8-tetrahydronaphthalen-2-ol]
